Tests used:
[1] = tested on: Herpes Simplex virus of the type I (HSV-I /Leningrad/248/88); assay: Antiviral effect on Herpes Simplex virus (cytopathogenic action on Vero cells); format: cell-based; conditions: for Quantity of the unchanged cells: number of cells in 100 visual fields
[2] = tested on: primary culture of human lymphocytes; assay: Interferon-inducing activity in primary culture of human lymphocytes (IFN-α immunoenzyme test); format: cell-based
Method: Interferon synthesis induction caused by the claimed compounds was conducted on a primary culture of human lymphocytes (it is these cells in a human organism that are the main producers of interferons). To obtain lymphocyte culture, fresh blood (within 12 hours after sampling) from healthy donors (not of group II) was used. To separate lymphocytes, heparinized blood obtained from healthy donor was centrifuged in a density gradient ficoll-verografin of […] in order to extract a fraction of immunocompetent cells. This fraction was selected and diluted with the nutrient medium RPMI-1640, containing 5% of fetal calf serum, 0.3 mg/ml of L-glutamin, 100 un/ml of penicillin, and 50 µg/ml of streptomycin. The concentration of lymphocytes was considered after dying them with methylene blue and calculation of cell number in a chamber of a hemocytometer. Initial solutions of the claimed compounds were diluted with the nutrient medium RPMI-1640 so that the final concentrations of the compounds, which were obtained after introduction of lymphocyte suspension, constituted the raw: 100 µg/ml, 10 µg/ml, 1 µg/ml. The final concentration of lymphocytes in the induction mixture was 3x10^6 cell/ml.
Control and test samples were incubated for 24 hours at the temperature of 37°C. After incubation, the samples were centrifuged at 2,000 G to deposit cell elements, and IFN-containing supernatant was separate out of the samples; then the supernatant was analyzed for the quantitative content of IFN. Cell deposition was resuspended in the preceding volume of nutrient medium, colored with vital dye trypan blue, and cell number was counted in a chamber of a hemocytometer (as described above) to determine cytotoxic action of the compounds.
Quantitative determination of the content of IFN in control and test samples was conducted using the immunoenzyme test system Pro Con IF2 Plus, that is intended for determination of IFN-α, which is produced by TOO "Protein contour". The solid-phase immunoenzyme method, utilizing horse radish peroxidase as an indicator enzyme, was used to determine the quantity of interferon in the samples. Activity of the bonded peroxidase was measured using an automatic photometer for microplates with a microprocessor at the wavelength of 450 nm.
Based on the obtained results, a calibrating curve was formed, which allows to obtain data expressed in international units (IU) of activity, using the microprocessor of the automatic photometer. The results of the analysis are expressed in IU of activity of IFN per ml in the given induction system, which contains 3x10^6 lymphocyte/ml. Each test and control point was investigated in four parallels.
Controls of immunoenzyme reaction: • 1. Control of DMSO with a nutrient medium. • 2. Control of system components (according to an instruction).
The obtained data were undergone a statistical analysis using t-criterion, and calculation of the confident interval of probability at p=0.05 was carried out. Coincidence between the results obtained in the parallel tests was analyzed.

[3] = compound concentration of 100 µg/ml, after 36 hours
[4] = compound concentration of 100 µg/ml, protection of cells from virus as compared to the control of cell culture

Compound	percentage of protection ([1]; Acyclovir 10 µg/ml, as compared to the control of cell culture) [%]	Quantity of the unchanged cells ([1]; Acyclovir 10 µg/ml)	Quantity of the unchanged cells [1, 3]	percentage of protection [1, 4] [%]	Content of IFN in induction mixture after 24-hour incubation ([2]; 1 mg/l)	Content of IFN in induction mixture after 24-hour incubation ([2]; 10 mg/l)	Content of IFN in induction mixture after 24-hour incubation ([2]; 100 mg/l)
Nc1nc2c(ncn2COCCO)c(=O)[nH]1 [Acyclovir, reference compound]	80	8000					
CCCCOC(=O)Nc1ccc(S(=O)(=O)Nc2ccc(Br)cc2)cc1 [III, Carbobutoxysulfanylic acid (4-bromophenyl)amide]			5000	50	1,4 ± 0,2 IU/3x10^4 lymph./ml	2,6 ± 0,3 IU/3x10^4 lymph./ml	3,5 ± 0,2 IU/3x10^4 lymph./ml
CCCCOC(=O)Nc1ccc(S(=O)(=O)Nc2ccccc2Cl)cc1 [IX, Carbobutoxysulfanylic acid (2-chlorophenyl)amide]			7000	70	1,5 ± 0,1 IU/3x10^4 lymph./ml	2 ± 0,1 IU/3x10^4 lymph./ml	2,5 ± 0,5 IU/3x10^4 lymph./ml
CCCCCCOC(=O)Nc1ccc(S(=O)(=O)Nc2ccc(Br)cc2)cc1 [V, Carbohexoxysulfanylic acid (4-bromophenyl)amide]			5000	50	1,1 ± 0,1 IU/3x10^4 lymph./ml	1,4 ± 0,1 IU/3x10^4 lymph./ml	2 ± 0,3 IU/3x10^4 lymph./ml
CCCCOC(=O)Nc1ccc(S(=O)(=O)Nc2ccccc2C)cc1 [VIII, Carbobutoxysulfanylic acid (2-toluyl)amide]			8000	80			
CCCCOC(=O)Nc1ccc(S(=O)(=O)Nc2ccccc2)cc1 [XIII, Carbobutoxysulfanylic acid phenylamide]			5000	50	1,5 ± 0,2 IU/3x10^4 lymph./ml	1,4 ± 0,1 IU/3x10^4 lymph./ml	2 ± 0,1 IU/3x10^4 lymph./ml
CCCCOC(=O)Nc1ccc(S(=O)(=O)Nc2cc(C)ccc2C)cc1 [XIV, Carbobutoxysulfanylic acid (2,5-dimethyl)amide]			7000	70	1,2 ± 0,1 IU/3x10^4 lymph./ml	1,8 ± 0,2 IU/3x10^4 lymph./ml	2 ± 0,2 IU/3x10^4 lymph./ml
CCCCCOC(=O)Nc1ccc(S(=O)(=O)Nc2c(Cl)cccc2Cl)cc1 [XIX, Carbopentoxysulfanylic acid (2,6-dichlorophenyl)amide]			8000	80			
CCOC(=O)Nc1ccc(S(=O)(=O)Nn2cnnc2)cc1 [XXVI, Carboethoxysulfanylic acid (1,2,4-triazole-4-yl)amide]					1,6 ± 0,1 IU/3x10^4 lymph./ml	2 ± 0,2 IU/3x10^4 lymph./ml	2,5 ± 0,5 IU/3x10^4 lymph./ml
CCCCCCCOC(=O)Nc1ccc(S(=O)(=O)Nc2ccccc2Cl)cc1 [XXVII, Carboheptoxysulfanylic acid (2-chlorophenyl)amide]					1,2 ± 0,1 IU/3x10^4 lymph./ml	1,5 ± 0,3 IU/3x10^4 lymph./ml	2 ± 0,3 IU/3x10^4 lymph./ml
CCCCCCOC(=O)Nc1ccc(S(=O)(=O)Nc2ccccc2Cl)cc1 [XXVIII, Carbohexoxysulfanylic acid (2-chlorophenyl)amide]					1,4 ± 0,1 IU/3x10^4 lymph./ml	2,3 ± 0,2 IU/3x10^4 lymph./ml	3 ± 0,1 IU/3x10^4 lymph./ml
